Reference: US4393225A, “AI-77 Compounds and pharmaceutically acceptable salts thereof” (Asahi Kasei Kogyo Kabushiki Kaisha, priority 1979, dated 1983)

The compounds below were run on ulcer (assay: Anti-ulcer test (restraint and water immersion ulcer in rats, i.p.)). Conditions: Rattus norvegicus, ip, read-out: % Inhibition of Ulcer.
Assay type: in vivo, Male Wistar rats
Procedure, shortened: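 Male Wistar rats (~150 g), fasted 24 h, dosed i.p. with compound in physiological saline; 1 h later restrained and immersed to xiphisternum in 21 °C water for 6 h. Stomachs examined microscopically, ulcers scored 0–3, and percent inhibition calculated.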

| Compound | inhibition in vivo at 25 mg/kg [%] |
| --- | --- |
| CC(C)CC(NC(=O)C(O)C(O)C(N)CC(N)=O)C1Cc2cccc(O)c2C(=O)O1 (stereo not drawn) [VII-1-1] | 100 |

Same assay, conditions: Rattus norvegicus, ip; 25 mg/kg i.p.; read-out: % Inhibition of Ulcer

| Compound | inhibition in vivo at 25 mg/kg [%] |
| --- | --- |
| CCCCOC(C(=O)NC(CC(C)C)C1Cc2cccc(O)c2C(=O)O1)C(O)C(CC(N)=O)NCC (stereo not drawn) [VII-17-1] | 78 |
| CCNC(=O)CC(NCC)C(O)C(OC(=O)CC)C(=O)NC(CC(C)C)C1Cc2cccc(OC)c2C(=O)O1 (stereo not drawn) [VII-15-4] | 44 |
| CCOc1cccc2c1C(=O)OC(C(CC(C)C)NC(=O)C(OC(C)=O)C(O)C(CC(N)=O)NC)C2 (stereo not drawn) [VII-24-1] | 66 |
| CC(C)CCCC(C)CCCC(C)CCCCNC(=O)CC(N)C(O)C(O)C(=O)NC(CC(C)C)C1Cc2cccc(O)c2C(=O)O1 (stereo not drawn) [VII-1-36] | 83 |
| CC(=O)Oc1cccc2c1C(=O)OC(C(CC(C)C)NC(=O)C(O)C(O)C(CC(N)=O)NCC(C)C)C2 (stereo not drawn) [VII-13-2] | 83 |
| CCOc1cccc2c1C(=O)OC(C(CC(C)C)NC(=O)C(OC(=O)C(C)C)C(O)C(N)CC(N)=O)C2 (stereo not drawn) [VII-6-2] | 66 |
| CNC(CC(N)=O)C(O)C(O)C(=O)NC(CC(C)C)C1Cc2cccc(OC(C)=O)c2C(=O)O1 (stereo not drawn) [VII-22-1] | 78 |
| CCCCOc1cccc2c1C(=O)OC(C(CC(C)C)NC(=O)C(OCCCC)C(O)C(N)CC(N)=O)C2 (stereo not drawn) [VII-7-2] | 72 |
| CCCNC(CC(N)=O)C(O)C(O)C(=O)NC(CC(C)C)C1Cc2cccc(O)c2C(=O)O1 (stereo not drawn) [VII-10-1] | 94 |
| CC(=O)OC(C)CCNC(=O)CC(N)C(O)C(O)C(=O)NC(CC(C)C)C1Cc2cccc(O)c2C(=O)O1 (stereo not drawn) [VII-1-28] | 94 |
| CC(C)CCNC(=O)CC(N)C(O)C(O)C(=O)NC(CC(C)C)C1Cc2cccc(O)c2C(=O)O1 (stereo not drawn) [VII-1-5] | 100 |
| CCCCCCCCCCCCCCCCCCNC(CC(N)=O)C(O)C(OCCCC)C(=O)NC(CC(C)C)C1Cc2cccc(O)c2C(=O)O1 (stereo not drawn) [VII-17-2] | 56 |
| CCCCOC(C(=O)NC(CC(C)C)C1Cc2cccc(OC)c2C(=O)O1)C(O)C(N)CC(N)=O (stereo not drawn) [VII-7-1] | 89 |
| CCNC(CC(N)=O)C(O)C(OC)C(=O)NC(CC(C)C)C1Cc2cccc(O)c2C(=O)O1 (stereo not drawn) [VII-17-3] | 89 |
| CCCCNC(=O)CC(N)C(O)C(O)C(=O)NC(CC(C)C)C1Cc2cccc(OCC)c2C(=O)O1 (stereo not drawn) [VII-5-3] | 78 |

Same assay, conditions: Rattus norvegicus, ip; 50 mg/kg i.p.; read-out: % Inhibition of Ulcer

| Compound | inhibition in vivo at 50 mg/kg [%] |
| --- | --- |
| CC(C)CC(NC(=O)C(O)C1C=CC(=O)O1)C1Cc2cccc(OC(=O)C(C)C)c2C(=O)O1 (stereo not drawn) [IVa-3-10] | 44 |
| CC(C)CC(NC(=O)C(O)C1OC(=O)CC1NC(=O)CC1CCCCO1)C1Cc2cccc(O)c2C(=O)O1 (stereo not drawn) [IIIa-1-24] | 66 |
| CCCCCSCCNC1CC(=O)OC1C(O)C(=O)NC(CC(C)C)C1Cc2cccc(OCC)c2C(=O)O1 (stereo not drawn) [IIIa-22-40] | 94 |
| CCOc1cccc2c1C(=O)OC(C(CC(C)C)NC(=O)C(O)C1OC(=O)CC1NCCCCBr)C2 (stereo not drawn) [IIIa-22-25] | 89 |
| CCNC1CC(=O)OC1C(O)C(=O)NC(CC(C)C)C1Cc2cccc(OC(C)=O)c2C(=O)O1 (stereo not drawn) [IIIa-21-1] | 78 |
| CCNC(CC(=O)O)C(O)C(O)C(=N)NC(CC(C)C)C1Cc2cccc(OC)c2C(=O)O1 (stereo not drawn) [Vb-14-1] | 89 |
| CCOc1cccc2c1C(=O)OC(C(CC(C)C)NC(=O)C(OCC)C1OC(=O)CC1NC(C)=O)C2 (stereo not drawn) [IIIa-7-2] | 33 |
| COC(C(=O)NC(CC(C)C)C1Cc2cccc(O)c2C(=O)O1)C1OC(=O)CC1NCC(Cl)(Cl)Cl (stereo not drawn) [IIIa-25-10] | 66 |
| COC(=O)c1ccc(C(=O)NC2CC(=O)OC2C(O)C(=O)NC(CC(C)C)C2Cc3cccc(O)c3C(=O)O2)cc1 (stereo not drawn) [IIIa-1-50] | 66 |
| CCCCCc1ccc(COc2cccc3c2C(=O)OC(C(CC(C)C)NC(=O)C(O)C2OC(=O)CC2NC(=O)CCC)C3)cc1 (stereo not drawn) [IIIa-5-119] | 33 |
| CCOc1cccc2c1C(=O)OC(C(CC(C)C)NC(=O)C(O)C1OC(=O)CC1NC(C)=O)C2 (stereo not drawn) [IIIa-5-1] | 44 |
| CCOc1cccc2c1C(=O)OC(C(CC(C)C)NC(=O)C(OC)C1OC(=O)CC1NC(C)=O)C2 (stereo not drawn) [IIIa-7-1] | 33 |
| CCOc1cccc2c1C(=O)OC(C(CC(C)C)NC(=O)C(O)C1OC(=O)CC1NC(=O)C1CCCO1)C2 (stereo not drawn) [IIIa-5-23] | 44 |
| CNC1CC(=O)OC1C(OC(C)=O)C(=O)NC(CC(C)C)C1Cc2cccc(OC(C)=O)c2C(=O)O1 (stereo not drawn) [IIIa-29-1] | 56 |
| CCCOC(C(=O)NC(CC(C)C)C1Cc2cccc(OCC)c2C(=O)O1)C1OC(=O)CC1N (stereo not drawn) [IIIa-15-8] | 56 |
| Cc1ccc(C(=O)Oc2cccc3c2C(=O)OC(C(CC(C)C)NC(=O)C(O)C2OC(=O)CC2N)C3)cc1 (stereo not drawn) [IIIa-12-7] | 78 |
| CCCCCCCC(=O)OC(C(=O)NC(CC(C)C)C1Cc2cccc(O)c2C(=O)O1)C1C=CC(=O)O1 (stereo not drawn) [IVa-1-9] | 33 |
| CCCCCCCCC=CCCCCCCCC(=O)NC1CC(=O)OC1C(OCC)C(=O)NC(CC(C)C)C1Cc2cccc(OCC)c2C(=O)O1 (stereo not drawn) [IIIa-7-5] | 22 |
| COC(C)CC(=O)Oc1cccc2c1C(=O)OC(C(CC(C)C)NC(=O)C(O)C1OC(=O)CC1N)C2 (stereo not drawn) [IIIa-12-6] | 78 |
| CC(C)CC(NC(=O)C(O)C1OC(=O)CC1NC(=O)CCCCCCCCCO)C1Cc2cccc(O)c2C(=O)O1 (stereo not drawn) [IIIa-1-78] | 66 |
| CCCCOC(C(=O)NC(CC(C)C)C1Cc2cccc(OC)c2C(=O)O1)C1OC(=O)CC1NC(=O)CCC (stereo not drawn) [IIIa-7-10] | 33 |
| CCNC1CC(=O)OC1C(O)C(=O)NC(CC(C)C)C1Cc2cccc(OC(=O)CC)c2C(=O)O1 (stereo not drawn) [IIIa-21-9] | 66 |
| CCOc1cccc2c1C(=O)OC(C(CC(C)C)NC(=O)C(O)C1OC(=O)CC1NC(=O)c1ccco1)C2 (stereo not drawn) [IIIa-5-22] | 44 |
| CCCCCCCC(=O)NC1CC(=O)OC1C(O)C(=O)NC(CC(C)C)C1Cc2cccc(O)c2C(=O)O1 (stereo not drawn) [IIIa-1-9] | 66 |
| CCC(=O)OC(C(=O)NC(CC(C)C)C1Cc2cccc(O)c2C(=O)O1)C1OC(=O)CC1NC(=O)C(Cl)(Cl)Cl (stereo not drawn) [IIIa-2-12] | 44 |

| Compound | inhibition in vivo at 50 mg/kg [%] |
| --- | --- |
| COc1cccc2c1C(=O)OC(C(CC(C)C)NC(=O)C(O)C1OC(=O)CC1N)C2 (stereo not drawn) [IIIa-13-1] | 100 |
| C/C=C/C(=O)NC1CC(=O)OC1C(O)C(=O)NC(CC(C)C)C1Cc2cccc(O)c2C(=O)O1 (stereo not drawn) [IIIa-1-54] | 66 |
| CC(C)CC(NC(=O)C(O)C1OC(=O)CC1N)C1Cc2cccc(OC(=O)C(C)C)c2C(=O)O1 (stereo not drawn) [IIIa-12-2] | 78 |
| CC(=O)Oc1cccc2c1C(=O)OC(C(CC(C)C)NC(=O)C(OC(=O)C(Cl)(Cl)Cl)C1OC(=O)CC1NC(=O)C(Cl)(Cl)Cl)C2 (stereo not drawn) [IIIa-3-10] | 33 |
| CCNC1CC(=O)OC1C(OC)C(=O)NC(CC(C)C)C1Cc2cccc(OCC)c2C(=O)O1 (stereo not drawn) [IIIa-24-1] | 56 |
| CCCCOc1cccc2c1C(=O)OC(C(CC(C)C)NC(=O)C(OCCCC)C1OC(=O)CC1NC)C2 (stereo not drawn) [IIIa-33-3] | 56 |
| CNC1CC(=O)OC1C(O)C(=O)NC(CC(C)C)C1Cc2cccc(OCCC(C)C)c2C(=O)O1 (stereo not drawn) [IIIa-31-4] | 89 |
| CCOc1cccc2c1C(=O)OC(C(CC(C)C)NC(=O)C(O)C1OC(=O)CC1NC(=O)c1ccc(OC(C)=O)cc1)C2 (stereo not drawn) [IIIa-5-35] | 44 |
| CCOc1cccc2c1C(=O)OC(C(CC(C)C)NC(=O)C(O)C1OC(=O)CC1NC(=O)c1ccc(C(C)C)cc1)C2 (stereo not drawn) [IIIa-5-67] | 44 |
| C#CC(=O)NC1CC(=O)OC1C(O)C(=O)NC(CC(C)C)C1Cc2cccc(OCC)c2C(=O)O1 (stereo not drawn) [IIIa-5-51] | 44 |
| CCNC(CC(=O)O)C(O)C(O)C(=N)NC(CC(C)C)C1Cc2cccc(OC(C)=O)c2C(=O)O1 (stereo not drawn) [Vb-13-1] | 78 |
| CCCCCC(=O)NC1CC(=O)OC1C(O)C(=O)NC(CC(C)C)C1Cc2cccc(O)c2C(=O)O1 (stereo not drawn) [IIIa-1-7] | 66 |
| CCCC(=O)OC(C(=O)NC(CC(C)C)C1Cc2cccc(O)c2C(=O)O1)C1C=CC(=O)O1 (stereo not drawn) [IVa-1-3] | 44 |
| CC(C)CC(NC(=O)C(O)C1OC(=O)CC1NCCCCCO)C1Cc2cccc(O)c2C(=O)O1 (stereo not drawn) [IIIa-18-52] | 94 |
| CC(=O)OC(C)CC(=O)NC1CC(=O)OC1C(O)C(=O)NC(CC(C)C)C1Cc2cccc(O)c2C(=O)O1 (stereo not drawn) [IIIa-1-48] | 66 |
| CC(C)CC(NC(=NCCN1CCOCC1)C(O)C(O)C(N)CC(=O)O)C1Cc2cccc(O)c2C(=O)O1 (stereo not drawn) [Vb-1-44] | 94 |
| CC(C)CNC1CC(=O)OC1C(O)C(=O)NC(CC(C)C)C1Cc2cccc(OCC(C)C)c2C(=O)O1 (stereo not drawn) [IIIa-22-4] | 94 |
| CC(=O)Oc1cccc2c1C(=O)OC(C(CC(C)C)NC(=O)C(O)C1OC(=O)CC1NC(=O)c1ccc(C)cc1)C2 (stereo not drawn) [IIIa-4-7] | 33 |
| CC(C)=CCC/C(C)=C/CC/C(C)=C/CCC(=O)NC1CC(=O)OC1C(O)C(=O)NC(CC(C)C)C1Cc2cccc(O)c2C(=O)O1 (stereo not drawn) [IIIa-1-67] | 66 |
| CC(C)CCc1ccc(C(C)C(=O)NC2CC(=O)OC2C(O)C(=O)NC(CC(C)C)C2Cc3cccc(O)c3C(=O)O2)cc1 (stereo not drawn) [IIIa-1-53] | 56 |
| CCCC(=O)NC1CC(=O)OC1C(O)C(=O)NC(CC(C)C)C1Cc2cccc(O)c2C(=O)O1 (stereo not drawn) [IIIa-1-3] | 66 |
| CC(C)CC(NC(=O)C(O)C1OC(=O)CC1N)C1Cc2cccc(OCc3ccc4ccccc4c3)c2C(=O)O1 (stereo not drawn) [IIIa-13-17] | 72 |
| CCOc1cccc2c1C(=O)OC(C(CC(C)C)NC(=N)C(O)C(O)C(N)CC(=O)O)C2 (stereo not drawn) [Vb-5-1] | 94 |
| CCOC(=O)CCC(=O)NC1CC(=O)OC1C(O)C(=O)NC(CC(C)C)C1Cc2cccc(OCC)c2C(=O)O1 (stereo not drawn) [IIIa-5-36] | 44 |

Same assay, conditions: rat, in vivo

| Compound | anti-ulcer activity (in words) |
| --- | --- |
| CC(C)CC(NC(=O)C(O)C(O)C(N)CC(=O)O)C1Cc2cccc(O)c2C(=O)O1 (stereo not drawn) [AI-77-B] | high anti-ulcer activity |
